Data published in patent EP1844781A1 (priority 2006, dated 2007).
Read-outs that look alike come from different tables or passages of the source.

How the values were obtained:
Format in all cases: cell-based, Wistar rats
uterine strips [1] = assay: Effect of inhibitors on electrically-induced uterine contractions (field electrical stimulation)
uterine strips [2] = assay: tissue or blood
uterine strips [3] = assay: tissue or blood; conditions: for minimal effective concentration: read-out: concentration at which rhythmic contractions appeared
uterine strips [4] = test system: uterine strips
myometrial strips = assay: Simultaneous measurement of contractile force and [Ca2+]i (Fura-2); conditions: veratridine 60 µM; myometrial fibers loaded with Fura-2; responding strips (10 of 21)
[5] = cumulative concentrations 1 nM-30 µM, strips exposed for 90 min (late response) to 60 µM veratridine

Compound: CN1[C@@H]2CC[C@H]1C[C@@H](OC(=O)C(CO)c1ccccc1)C2 (stereo partly drawn) [Atropine, atropine]
- contractile area of electrically-induced uterine contractions, % of the previous contraction (uterine strips [1]): 30.3 ± 8.1%
- contractile area of spontaneous contractions, % of the previous contractile area (uterine strips [2]): 26.7 ± 2.2%
- effect on spontaneous uterine contractions (uterine strips [2]): abolished or almost abolished

Compound: COc1cc2nc(N3CCN(C(=O)c4ccco4)CC3)nc(N)c2cc1OC [Prazosin, prazosin]
- activity at 1 µM (uterine strips [1]; Rattus norvegicus, read-out: contractile area of electrically-induced uterine contractions, % of the previous contraction): 92.3 ± 4%
- activity at 1 µM (uterine strips [2]; Rattus norvegicus, 40 min, read-out: contractile area of spontaneous contractions, % of the previous contractile area): 108 ± 9.1%

Compound: CCN1C[C@]2(COC)[C@H](O)C[C@H](OC)[C@@]34[C@@H]5C[C@@]6(O)[C@H](OC(=O)c7ccccc7)[C@@H]5[C@@](OC(C)=O)([C@@H]([C@H](OC)[C@H]23)[C@@H]14)[C@@H](O)[C@@H]6OC [aconitine]
- concentration at which the maximal response was reached (uterine strips [3]): 100 µM
- minimal effective concentration (uterine strips [3]): ≥ 100 µM

Compound: C=C(C=O)C[C@@H]1C[C@H](O)[C@]2(C)O[C@@H]3C[C@@H]4O[C@@H]5C[C@]6(C)O[C@]7(C)CC[C@@H]8O[C@@H]9C[C@]%10(C)O[C@@H]%11C(C)=CC(=O)O[C@H]%11C[C@H]%10O[C@H]9C[C@@H](C)[C@H]8O[C@H]7C[C@H]6O[C@H]5C/C=C\[C@H]4O[C@H]3C[C@H]2O1 [brevetoxin-B]
- concentration at which the maximal response was reached (uterine strips [3]): 0.03 µM

Compound: O=C(NCC1CCCCN1)c1cc(OCC(F)(F)F)ccc1OCC(F)(F)F (stereo not drawn) [flecainide]
- effect on veratridine-induced rhythmic contractions (uterine strips [4]; [5]): did not modify

Compound: COc1ccc(C(=O)O[C@H]2CC[C@@]3(C)[C@@H]4CC[C@H]5[C@]6(O)C[C@H](O)[C@@]7(O)[C@@H](CN8C[C@@H](C)CC[C@H]8[C@@]7(C)O)[C@]6(O)C[C@@]53O[C@]24O)cc1OC [veratridine]
- frequency of contractions (myometrial strips): 0.75 ± 0.09 min⁻¹
- mean amplitude of rhythmic contractions during a 10-min period (myometrial strips): 8.48 ± 1.20 mN
- minimal effective concentration (uterine strips [3]; Rattus norvegicus, […], non-pregnant rats, undetermined stage of the ovarian cycle): ≥ 10 µM
- concentration at which the maximal response was reached (uterine strips [3]; measured during a 60 min application, 1.9 or 1.1 mM Ca2+-containing solution): 60 µM
- time the contractile response remained very regular and well maintained after addition (uterine strips [3]; veratridine 60 µM, continuous presence, 24 uterine strips from 12 animals): at least 12 h

Compound: CCOC(=O)C1=C[C@]2(CC)CCCN3CCc4c(n1c1ccccc41)[C@@H]32 [vinpocetine]
- effect on veratridine-induced rhythmic contractions (uterine strips [4]; [5]): did not modify

Compound: grayanotoxin
- concentration at which the maximal response was reached (uterine strips [3]): 30 µM
- minimal effective concentration (uterine strips [3]): ≥ 20 µM

Compound: µ-conotoxin GIIIB
- effect on veratridine-induced rhythmic contractions (uterine strips [4]): did not modify
